Measured values: ChEMBL document CHEMBL5647692, “The novel dual PI3K/mTOR inhibitor NVP-BGT226 displays cytotoxic activity in both normoxic and hypoxic hepatocarcinoma cells” (Oncotarget, 2015)
Activity calls are given as the source filed them. The rule behind the calls is not given here. Peptide text beside a SMILES is read from it. * marks the point of attachment. Cbz = O=C(OCc1ccccc1)*; CH2F = FC*

Legend:
Mahlavu [1] = assay: Induction of autophagy in human Mahlavu cells assessed as reduction in cytotoxicity at 10 to 25 uM incubated for 24 hrs by MTT assay; type: functional, cell-based; conditions: dose 10-25 µM
SNU-475 [2] = assay: Cytotoxicity against human SNU-475 cells assessed as reduction in cell viability at 25 uM incubated for 24 hrs in presence of BGT226 under hypoxia condition by MTT assay; type: functional, cell-based
SNU-475 [3] = assay: Cytotoxicity against human SNU-475 cells assessed as reduction in cell viability at 10 uM incubated for 24 hrs in presence of BGT226 under hypoxia condition by MTT assay; type: functional, cell-based
Mahlavu [4] = assay: Cytotoxicity against human Mahlavu cells assessed as reduction in cell viability at 25 uM incubated for 24 hrs in presence of BGT226 under hypoxia condition by MTT assay; type: functional, cell-based
SNU-475 [5] = assay: Induction of autophagy in human SNU-475 cells assessed as reduction in cytotoxicity at 10 to 25 uM incubated for 24 hrs by MTT assay; type: functional, cell-based; conditions: dose 10-25 µM
Mahlavu [6] = assay: Cytotoxicity against human Mahlavu cells assessed as reduction in cell viability at 10 uM incubated for 24 hrs under normoxia condition by MTT assay; type: functional, cell-based
SNU-475 [7] = assay: Cytotoxicity against human SNU-475 cells assessed as reduction in cell viability at 10 uM incubated for 24 hrs under hypoxia condition by MTT assay; type: functional, cell-based
Mahlavu [8] = assay: Cytotoxicity against human Mahlavu cells assessed as reduction in cell viability at 10 uM incubated for 24 hrs in presence of BGT226 under hypoxia condition by MTT assay; type: functional, cell-based
Mahlavu [9] = assay: Cytotoxicity against human Mahlavu cells assessed as reduction in cell viability at 25 uM incubated for 24 hrs under hypoxia condition by MTT assay; type: functional, cell-based
SNU-475 [10] = assay: Cytotoxicity against human SNU-475 cells assessed as reduction in cell viability at 25 uM incubated for 24 hrs under hypoxia condition by MTT assay; type: functional, cell-based
HepG2 = assay: Cytotoxicity against human HepG2 cells assessed as reduction in cell viability at 10 uM incubated for 24 hrs by MTT assay; type: functional, cell-based
Hep 3B2 [11] = assay: Cytotoxicity against human Hep3B cells assessed as reduction in cell viability at 10 uM incubated for 24 hrs by MTT assay; type: functional, cell-based
Mahlavu [12] = assay: Cytotoxicity against human Mahlavu cells assessed as reduction in cell growth at 10 uM incubated for 24 hrs under hypoxia condition by MTT assay; type: functional, cell-based
Hep 3B2 [13] = assay: Cytotoxicity against human Hep3B cells assessed as reduction in cell growth at 10 uM incubated for 24 hrs under hypoxia condition by MTT assay; type: functional, cell-based
Mahlavu [14] = assay: Induction of apoptosis in human Mahlavu cells assessed as necrotic cells at 75 uM incubated for 24 hrs by Annexin-V/7-AAD staining based muse cell analyzer method (reference value: 0.67 %); type: functional
SNU-449 [15] = assay: Induction of apoptosis in human SNU-449 cells assessed as late apoptotic cells at 75 uM incubated for 24 hrs by Annexin-V/7-AAD staining based muse cell analyzer method (reference value: 5.03 %); type: functional
Mahlavu [16] = assay: Induction of apoptosis in human Mahlavu cells assessed as viable cells at 75 uM incubated for 24 hrs by Annexin-V/7-AAD staining based muse cell analyzer method (reference value: 90.52 %); type: functional; conditions: read-out: Activity
SNU-449 [17] = assay: Induction of apoptosis in human SNU-449 cells assessed as early apoptotic cells at 75 uM incubated for 24 hrs by Annexin-V/7-AAD staining based muse cell analyzer method (reference value: 3.95 %); type: functional
SNU-449 [18] = assay: Induction of apoptosis in human SNU-449 cells assessed as viable cells at 75 uM incubated for 24 hrs by Annexin-V/7-AAD staining based muse cell analyzer method (reference value: 90.07 %); type: functional; conditions: read-out: Activity
Mahlavu [19] = assay: Induction of apoptosis in human Mahlavu cells assessed as late apoptotic cells at 75 uM incubated for 24 hrs by Annexin-V/7-AAD staining based muse cell analyzer method (reference value: 2.24 %); type: functional
SNU-449 [20] = assay: Induction of apoptosis in human SNU-449 cells assessed as necrotic cells at 75 uM incubated for 24 hrs by Annexin-V/7-AAD staining based muse cell analyzer method (reference value: 0.95 %); type: functional
Mahlavu [21] = assay: Induction of apoptosis in human Mahlavu cells assessed as early apoptotic cells at 75 uM incubated for 24 hrs by Annexin-V/7-AAD staining based muse cell analyzer method (reference value: 6.57 %); type: functional

**Q.** How did the Activity (Mahlavu [1]) turn out when CCN(CC)CCCC(C)Nc1ccnc2cc(Cl)ccc12 (configuration not stated) was run?
**A.** Its Activity is “Active”.

**Q.** What about the Activity (SNU-475 [2]) of the same molecule?
**A.** Its Activity is “Active”.

**Q.** What about the Activity (SNU-475 [3]) of the same molecule?
**A.** Its Activity is “Active”.

**Q.** And the Activity (Mahlavu [4])?
**A.** The Activity was “Active”.

**Q.** What about the Activity (SNU-475 [5]) of the same molecule?
**A.** Its Activity is “Active”.

**Q.** What about the Activity (Mahlavu [6]) of the same molecule?
**A.** Its Activity is “Active”.

**Q.** And the Activity (SNU-475 [7])?
**A.** Its Activity is “Active”.

**Q.** What about the Activity (Mahlavu [8]) of the same molecule?
**A.** Its Activity is “Active”.

**Q.** And the Activity (Mahlavu [9])?
**A.** The Activity was “Active”.

**Q.** What about the Activity (SNU-475 [10]) of the same molecule?
**A.** The Activity was “Active”.

**Q.** What does the source list for Cn1cnc(N)c2ncnc1-2?
**A.** Activity (HepG2): inactive; Activity (Hep 3B2 [11]): inactive; Activity (Mahlavu [12]): inactive; Activity (Hep 3B2 [13]): inactive

**Q.** What does the source list for COC(=O)C[C@H](NC(=O)[C@H](C)NC(=O)[C@@H](NC(=O)OCc1ccccc1)C(C)C)C(=O)CF (Cbz-Val-Ala-Asp(OMe)-CH2F)?
**A.** Activity (Mahlavu [14]): 1.52%; Activity (SNU-449 [15]): 5.35%; viability at 75 µM (Mahlavu [16]): 89.7%; Activity (SNU-449 [17]): 4.6%; viability at 75 µM (SNU-449 [18]): 89.5%; Activity (Mahlavu [19]): 3.78%; Activity (SNU-449 [20]): 0.53%; Activity (Mahlavu [21]): 5%
